Test [1] concerns the target SARS-CoV-2 main protease (M^pro) (Severe acute respiratory syndrome coronavirus 2, UniProt P0DTD1). As to the kind of experiment: biochemical. The conditions noted are these: for inhibition at 20 µM: read-out: inhibition against M^pro.
Test [2] deals with EV-A71 3C protease (Human enterovirus 71, UniProt Q66478). As to the kind of experiment: biochemical.
Test [3] has as its target T1, EV-A71 2A protease (Human enterovirus 71, UniProt Q66478).
T1 sequence (Q66478 863-1012 limits assumed): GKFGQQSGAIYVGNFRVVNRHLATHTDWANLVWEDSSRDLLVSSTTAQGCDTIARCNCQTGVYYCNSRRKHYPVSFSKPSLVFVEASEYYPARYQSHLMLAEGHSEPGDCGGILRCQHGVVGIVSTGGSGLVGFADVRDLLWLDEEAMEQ
In words: biochemical.

Test [4] addresses SARS-CoV-2 M^pro (Severe acute respiratory syndrome coronavirus 2, UniProt P0DTD1). It counts as binding.
For test [5], the system named is influenza virus A/California/07/2009 (H1N1). As to the kind of experiment: Influenza A virus plaque reduction assay. It counts as cell-based. Particulars: read-out: A/California/07/2009 (H1N1) antiviral activity (EC50). On the technique in general: Plaques are areas of infected cells; plaque reduction assays count them against a control.
Test [6] deals with SARS-CoV 3CL^pro (M^pro). Particulars: read-out: IC50 against SARS-CoV 3CL^pro (M^pro); cited from earlier work.
Where [7] appears, read: 8 µM protein, 4 mM DTT, ligand 12.5 µM (62: 25 µM), up to two ligands per dimer.

The source of these data is article PMC7294525 (Cell Research, 2020).

Like-named read-outs stand apart in the source and are kept apart here. Peptide text beside a SMILES is read from it. * marks the point of attachment. Cbz = O=C(OCc1ccccc1)* Where only a bound is given, the exact number is not on record here.

Chain of EV-A71 3C protease (Q66478 1549-1731): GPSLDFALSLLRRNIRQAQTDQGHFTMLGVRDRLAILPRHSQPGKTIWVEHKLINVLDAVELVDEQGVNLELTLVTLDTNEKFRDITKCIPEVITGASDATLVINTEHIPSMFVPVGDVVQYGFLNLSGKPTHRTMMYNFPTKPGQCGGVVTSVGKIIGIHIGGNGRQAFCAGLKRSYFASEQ

What is called IC50 is the midpoint of a concentration-inhibition curve. The compound `Cc1cccc(C)c1OCC(=O)N[C@@H](Cc1ccccc1)[C@@H](O)C[C@H](Cc1ccccc1)NC(=O)[C@H](C(C)C)N1CCCNC1=O` [compound 10, lopinavir] gave an IC50 in test [1] of more than 20 µM.

As usually defined, the inhibition is the drop in the measured response relative to a control, in per cent. `COc1ccc2c(O[C@@H]3C[C@H]4C(=O)N[C@]5(C(=O)NS(=O)(=O)C6CC6)C[C@H]5/C=C\CCCCN(C)C(=O)[C@@H]4C3)cc(-c3nc(C(C)C)cs3)nc2c1C` [compound 24, simeprevir]: the inhibition at 20 µM in test [1] was more than 60%.

Regarding `CC(C)(C)NC(=O)N[C@H](C(=O)N1C[C@H]2[C@@H]([C@H]1C(=O)NC(CC1CCC1)C(=O)C(N)=O)C2(C)C)C(C)(C)C` (stereo partly shown) [compound 28, boceprevir], the IC50 in test [2] and in test [3] was more than 20 µM each time. For the same compound, the “binding stoichiometry by native MS” value in test [4] is “one drug per protomer”. For the same compound, the inhibition at 20 µM in test [1] was more than 60%. Also, the EC50 in test [5] is more than 20 µM.

With `CCCC[C@H](NC(=O)[C@@H]1[C@@H]2[C@H](CN1C(=O)[C@@H](NC(=O)NC1(CS(=O)(=O)C(C)(C)C)CCCCC1)C(C)(C)C)C2(C)C)C(=O)C(=O)NC1CC1` [compound 29, narlaprevir], the IC50 in test [2] and in test [3] was more than 20 µM each time. Moreover, in test [1], the inhibition at 20 µM is more than 60%.

The compound `CN(C)C(=O)COC(=O)Cc1ccc(OC(=O)c2ccc(NC(=N)N)cc2)cc1` [compound 39, camostat] had an IC50 in test [1] of more than 20 µM.

Regarding `CC(C)C[C@@H](C=O)NC(=O)[C@H](CC(C)C)NC(=O)[C@H](CC(C)C)NC(=O)OCc1ccccc1` [compound 43, MG-132] (Cbz-Leu-Leu-Leu-aldehyde), the IC50 in test [2] and in test [3] was more than 20 µM throughout. Moreover, the inhibition at 20 µM in test [1] was more than 60%.

`CC(C)[C@H](NC(=O)OCc1ccccc1)C(=O)N[C@H](C=O)Cc1ccccc1` [compound 57, calpain inhibitor III] (Cbz-Val-Phe-aldehyde) yielded an IC50 in test [1] of more than 20 µM.

In the case of `CCOC(=O)/C=C/[C@H](C[C@@H]1CCNC1=O)NC(=O)[C@@H](CC(=O)[C@@H](NC(=O)c1cc(C)on1)C(C)C)Cc1ccc(F)cc1` [compound 65, rupintrivir], the “activity against EV-A71 3C protease” value in test [2] is reported as “potent inhibition”. Also, the “activity against EV-A71 2A protease” value in test [3] is “inactive”. Also, the IC50 in test [6] was more than 100 µM.

For GC-376 [compound 64], the “activity against EV-A71 3C protease” value in test [2] was “potent inhibition”. For the same compound, the “activity against EV-A71 2A protease” value in test [3] was “inactive”. In addition, the EC50 in test [5] (plaque assay) was more than 20 µM.

As for calpain inhibitor II [compound 61], the “binding stoichiometry by native MS” value in test [4] (setting [7]) is listed as “one drug per protomer”. Further, the EC50 in test [5] (plaque assay) is more than 20 µM.

As to calpain inhibitor XII [compound 62], the “binding stoichiometry by native MS” value in test [4] (setting [7]) is reported as “one drug per protomer”. The EC50 in test [5] (plaque assay) is more than 20 µM.
